From ChEMBL document CHEMBL3832082, “DailyMed|setid=a9a12198-b016-42ae-b9dc-d98fead7b79e | CARVEDILOL- carvedilol tablet, film coated|REMEDYREPACK INC” come the findings set out here.

A short description of data set [1]: (§1) Pharmacokinetic parameters for Carvedilol following oral administration of Carvedilol tablets. The format is ADME, organism-based. The settings on record: human, in vivo, dosed compound id 39, dosed compound name CARVEDILOL, tissue Plasma.
A further data set relates to Homo sapiens. The data set is described as §1. The format is ADME, organism-based. The conditions noted are these: in vivo, po, dosed compound id 39, dosed compound name CARVEDILOL, tissue Plasma.

In general, CL/F refers to the apparent clearance, not corrected for the fraction that reaches the circulation. The bioavailability is the share of a dose that reaches the circulation, judged against a reference dose that is usually intravenous. Low values mean little systemic uptake, high ones much systemic uptake. For `COc1ccccc1OCCNCC(O)COc1cccc2[nH]c3ccccc3c12` (stereo not given) [CARVEDILOL], the half-life in data set [1] (gender male and female, read-out: t1/2(app)) lay within 5 to 9 h. Moreover, in data set [1], the apparent clearance CL/F was in the range of 500 to 700 mL/min and the bioavailability lay within 25 to 35%. This compound also registered a t1/2(app) with Homo sapiens (gender male and female) of 7 to 11 h. In the data set with Homo sapiens, this compound displayed a Vss of 115 L.
